The source of these data is patent US4835253A, “Specific inhibitors of tissue kallikrein” (The University Hospital, priority 1987, dated 1989).

Several values for one entry are separate records, joined by “and”; a condition that tells them apart may be missing. Identical values can stand only once. Like-named read-outs stand apart in the source and are kept apart here. Ada = not defined here

Series [1] addresses T1, rat submaxillary gland kallikrein (Rattus norvegicus, UniProt P00758).
T1 sequence (P00758 25-261): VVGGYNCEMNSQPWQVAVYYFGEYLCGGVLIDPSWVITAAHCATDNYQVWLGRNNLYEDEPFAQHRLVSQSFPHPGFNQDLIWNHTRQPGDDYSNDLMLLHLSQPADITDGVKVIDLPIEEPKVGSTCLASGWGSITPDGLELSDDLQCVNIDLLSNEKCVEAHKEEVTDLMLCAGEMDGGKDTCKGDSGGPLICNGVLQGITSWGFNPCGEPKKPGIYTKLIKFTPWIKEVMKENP
The series can be described thus: Rat femoral artery blood flow response to RSK during and after inhibitor infusion. The class given is in vivo. From the text:
(§1) In order to develop a more reproducible, less tachyphylactic system, a rat blood flow model was developed and assessed in male Sprague-Dawley rats. These animals were anesthetized subcutaneously with urethane (1.4 g/kg). Polyethylene PE-10 tubing was inserted into the right femoral artery and femoral vein for intra-arterial and intravenous injections, respectively, the arterial catheter was inserted such that the tip was located immediately proximal to the bifurcation. The rats were tracheostomized and cannulated with PE-200 tubing. A subcutaneous 23 gauge needle was left in the back of the animal for booster injections of urethane (0.35 g/kg every 2.5 hours). A blood flow probe (1.5 mm circumference) was placed on the left femoroal artery and the mean femoral arterial blood flow was monitored with a square-wave electromagnetic flowmeter (Carolina Medical Electronics, model 501). Rat submaxillary gland kallikrein (hereinafter "RSK") or porcine pancreatic kallikrein (hereinafter "PPK") was given intra-arterially, unless otherwise indicated, until a reproducible response was obtained. Each animal was then infused intravenously with KKI-7 inhibitor in DMSO (206 nmole/0.022 ml/min) or with the DMSO vehicle (0.022 ml/min). Bradykinin was also given intra-arterially to determine whether or not the KKI-7 inhibitor effected the blood flow response to bradykinin. The magnitude and duration of the responses to PPK, RSK, and bradykinin were compared before, during, and after the intravenous infusion of KKI-7 or the DMSO vehicle alone. The blood flow increase over the basal blood flow was integrated and expressed as arbitrary units or as the percent change from blood flow increased observed during the control period. The results are provided by FIG. 1 and Table IV below.

In series [2] the target is T2, bovine pancreatic trypsin (Bos taurus, UniProt P00760).
T2 sequence (P00760 24-246): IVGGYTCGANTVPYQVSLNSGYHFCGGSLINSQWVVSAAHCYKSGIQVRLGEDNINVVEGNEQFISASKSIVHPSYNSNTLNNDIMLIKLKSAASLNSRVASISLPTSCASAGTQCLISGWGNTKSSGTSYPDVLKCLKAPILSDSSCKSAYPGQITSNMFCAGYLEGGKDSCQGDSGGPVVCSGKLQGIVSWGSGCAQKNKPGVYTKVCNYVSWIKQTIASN
The series can be described thus: KI against trypsin with substrate S-2444. It is filed as biochemical. The conditions noted are these: read-out: K1, Trypsin. The method, then:
(§2) Initially, the inhibitor constant (KI) for each of these novel inhibitor compositions was determined using purified HUK and the tripeptide nitroanilide, S-2266. The ability to inhibit hydrolysis of the S-2266 substrate was performed in 50 mM tris-HCL buffer (pH 9.0) at 37 C. Subsequently, the ability of these novel inhibitors to inhibit human plasma kallikrein and bovine pancreatic trypsin were similarly examined using the specific substrates H-D-Pro-Phe-Arg-p-nitroanilide (S-2302) and Glu-Gly-Arg-p-nitroanilide (S-2444) respectively. The degradation products of each series was purified by HPLC and quantified by liquid scintillation counting as previously described.

Series [3] concerns the target T3, Human urinary kallikrein (Homo sapiens, UniProt P06870).
T3 construct: Human urinary kallikrein (hereinafter "HUK") was highly purified using a modification of published methods; from tissue; host or cells: human urine
In words: KM determination: hydrolysis of substrate analogues by HUK (HPLC, scintillation counting). The following applies: analysis of the reaction products. It is filed as biochemical. As for the experimental part:
(§3) Human urinary kallikrein (hereinafter "HUK") was highly purified using a modification of published methods that employ ultrafiltration, aprotinin-CH-sepharose affinity chromatography, and Sephadex G-100 gel filtration [ole-MoiYoi et al., Proc. Natl. Acad. Sci. USA 76: 3121-3125 (1979)]. […] The pH of each fraction was determined immediately upon elution, and the fraction was neutralized by addition of 2.0 ml of 2M Tris-HCL buffer (pH 8.0).
KM Determination: Hydrolysis of the substrate analogue inhibitors by HUK was measured by combining the test inhibitor at different concentrations on either side of the KM value with the enzyme at pH 9.0 for thirty minutes at 37 C. The cleavage products were separated from the starting material in the digest by HPLC on a Beckman octadecylsilane (ODS) column (1×25 cm) using a thirty minute gradient of from 0-70% CH3 CN in triethylammonium phosphate buffer (pH 7.0). The starting materials and reaction products were completely resolved under these conditions. Absorbance of the HPLC effluent was monitored at 220 nm. Individual fractions were collected and the amount of peptide degradation products was quantitated by counting in a liquid scintillation counter. Samples containing individual inhibitors were incubated without HUK and solvent blanks were also chromatographed and analyzed in the same way.
For test purposes, in these HUA cleavage studies, individual peptide sequences were synthesized, purified, and characterized as previously described herein. For these cleavage studies, doubly labelled peptides were prepared using [^3 H]-valine and […] respectively. In addition, 6.0N HCL-dioxane was used for removal of tert-butoxycarbonyl protecting groups and 90% hydrogen fluoride/10% anisole (volume/volume) for global deprotection on completion of the synthesis. After extraction and gel filtration on Sephadex G-15, final purification was completed by isocratic elution from a synchrom RP-P column (2.1×25 cm) with CH3 CN--H2 O (8 ml/min). The resultant peptides were deemed to be homogeneous by amino acid analysis; high performance liquid chromatography; thin layer chromatography; and A230 /A260 ratio analysis. […]

A short description of series [4]: Effects of the inhibitor infusion itself in the rat blood flow model. The class given is in vivo.
Text: as §1, with “Each animal was then infused intravenously with KKI-7 inhibitor in DMSO (206 nmole/0.022 ml/min) or with the DMSO vehicle (0.022 ml/min). Bradykinin was also given intra-arterially to determine whether or not the KKI-7 inhibitor effected the blood flow response to bradykinin. The magnitude and duration of the responses to PPK, RSK, and bradykinin were compared before, during, and after the intravenous infusion of KKI-7 or the DMSO vehicle alone.” left out, “The results are provided by FIG. 1 and Table IV below.” left out

Series [5] can be described thus: Mean arterial blood pressure in normotensive, salt-replete rats (infusion or bolus). The class given is in vivo, rat. As for the experimental part:
Subsequently, a third study utilizing normotensive, salt-replete rats was performed employing an infusion of KKI-7 at a rate of 200 ug of inhibitor per kilogram of rat per minute (200 ug/kg/min). Eight rats each received this infusion for 15 minutes during which the change in mean arterial blood pressure (Torr) was monitored. The results are provided by FIG. 2. In addition, a series of bolus injections were given to conscious, salt-replete, normotensive rats to determine the ED50 dosage necessary to cause a substantive increase in blood pressure. The results are graphically illustrated by FIG. 3 as the log-dose response effect of KKI-7 upon blood pressure.

Series [6] deals with Human Plasma Kallikrein (Homo sapiens, UniProt P03952). The series can be described thus: KI against plasma kallikrein with substrate S-2302. It is filed as biochemical. The following applies: read-out: K1, Human Plasma Kallikrein. The method, then:
as §2

The target of series [7] is T3, Human urinary kallikrein. In words: KI determination: inhibition of HUK cleavage of chromogenic substrate S-2266. The class given is biochemical. As for the experimental part: as §3
KI Determinations: KI measurements were performed using a HP8450A diode array spectrophotometer (Hewlett Packard; Palo Alto, Calif.) attached to a Model 216 computer using the multi-component assay program modified to allow simultaneous determination of reaction velocity in four samples. Dixon plots were used to data reduction and for calculation of […]. […] Inhibition of biologically active kinin from LMW-kininogen was done at pH 7.7 and 37 C.
Procedurally, the KI values for the preliminary analogue inhibitors reported previously [Okunishi et al., Hypertension 7 (Suppl. I): I-72-I-75 (1985)] were determined by adding the chromogenic substrate S-2266 comprising D-Val-Leu-Arg-4-nitroaniline to a mixture of the analogue inhibitor and the HUK.
as §2

In series [8] the test system is bradykinin. The series can be described thus: Rat femoral artery blood flow response to bradykinin during inhibitor infusion. It is filed as in vivo.
Text: as §1, with “Each animal was then infused intravenously with KKI-7 inhibitor in DMSO (206 nmole/0.022 ml/min) or with the DMSO vehicle (0.022 ml/min). Bradykinin was also given intra-arterially to determine whether or not the KKI-7 inhibitor effected the blood flow response to bradykinin. The magnitude and duration of the responses to PPK, RSK, and bradykinin were compared before, during, and after the intravenous infusion of KKI-7 or the DMSO vehicle alone.” left out, “The results are provided by FIG. 1 and Table IV below.” left out

For series [9], the target named is porcine pancreatic kallikrein (Sus scrofa, UniProt P00752). The series can be described thus: Rat femoral artery blood flow response to PPK during and after inhibitor infusion. It is filed as in vivo.
porcine pancreatic kallikrein, sequence (P00752 8-246): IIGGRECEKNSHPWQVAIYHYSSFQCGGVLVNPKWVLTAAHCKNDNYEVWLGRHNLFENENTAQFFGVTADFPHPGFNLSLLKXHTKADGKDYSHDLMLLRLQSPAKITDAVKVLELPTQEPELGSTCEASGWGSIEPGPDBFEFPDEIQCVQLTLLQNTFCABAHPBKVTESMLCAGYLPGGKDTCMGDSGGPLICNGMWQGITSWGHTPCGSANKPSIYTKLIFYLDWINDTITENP
Text: as §1

Series [10] addresses T4, Rat urinary kallikrein (Rattus norvegicus, UniProt P00758).
T4 sequence (P00758 25-261): T1 sequence (P00758 25-261)
The series can be described thus: Blood pressure response to injected rat urinary kallikrein during inhibitor infusion. It is filed as in vivo. The conditions noted are these: infusion 32 nmol/min/animal, anesthetized rats, RUK 203.5 ng. As for the experimental part:
A series of in-vivo studies were undertaken to determine the effective of the KKI-7 and KKI-8 inhibitors on the blood pressure response to glandular kallikrein. Initially, three female Dahl hypertension-resistant rats (Brookhaven Laboratories, Brookhaven, N.Y.), and four male Sprague-Dewley rats (Charles River, Wilmington, Mass.) were utilized. Each of these animals was anesthetized with Inactin (100 mg/kg ip) and cannulated in a femoral artery with PE-50 polyethylene tubing (Clay Adams, Parsippany, N.J.) which was connected to a Hewlett-Packard model 1280 blood pressure transducer and model 7702B recorder. The right jugular vein was cannulated with PE-10 tubing. The rats were tracheostomized, but respiration was not artificially assisted. Rat urinary kallikrein (hereinafter "RUK") was repeatedly administered via a venous cannula until a reproducable response was obtained. KKI-8 inhibitor was then infused using a Harvard model 901 infusion pump at a rate of 32 nmol/0.022 ml/min. RUK (203.5 ng in 50 ul) was injected during the infusion period. After the infusion was stopped, the reversibility of the inhibition was examined by further injections of RUK. The infusion of KKI-8 (32 nmol/min/animal) inhibited the very gradual and modest decrease in blood pressure otherwise elicited with RUK.

Where [11] appears, read: iv infusion 206 nmole/0.022 ml/min in DMSO.
Setting [12] is: HUK, S-2266, text, read-out: KI values.
Setting [13] is: S-2266, 50 mM tris-HCL pH 9.0, 37 C, read-out: K1, Human Urinary Kallikrein.
Where [14] appears, read: iv infusion 206 nmole/0.022 ml/min in DMSO, 2 units PPK.

T3 sequence (P06870 25-262): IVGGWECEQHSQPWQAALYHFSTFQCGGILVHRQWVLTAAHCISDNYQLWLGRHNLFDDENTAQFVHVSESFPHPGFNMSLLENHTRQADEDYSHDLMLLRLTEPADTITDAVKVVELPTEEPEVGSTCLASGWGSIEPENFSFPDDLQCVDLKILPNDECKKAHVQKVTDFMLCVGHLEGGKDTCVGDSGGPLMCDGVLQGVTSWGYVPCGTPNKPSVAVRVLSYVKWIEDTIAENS
Human Plasma Kallikrein, sequence (P03952 20-638): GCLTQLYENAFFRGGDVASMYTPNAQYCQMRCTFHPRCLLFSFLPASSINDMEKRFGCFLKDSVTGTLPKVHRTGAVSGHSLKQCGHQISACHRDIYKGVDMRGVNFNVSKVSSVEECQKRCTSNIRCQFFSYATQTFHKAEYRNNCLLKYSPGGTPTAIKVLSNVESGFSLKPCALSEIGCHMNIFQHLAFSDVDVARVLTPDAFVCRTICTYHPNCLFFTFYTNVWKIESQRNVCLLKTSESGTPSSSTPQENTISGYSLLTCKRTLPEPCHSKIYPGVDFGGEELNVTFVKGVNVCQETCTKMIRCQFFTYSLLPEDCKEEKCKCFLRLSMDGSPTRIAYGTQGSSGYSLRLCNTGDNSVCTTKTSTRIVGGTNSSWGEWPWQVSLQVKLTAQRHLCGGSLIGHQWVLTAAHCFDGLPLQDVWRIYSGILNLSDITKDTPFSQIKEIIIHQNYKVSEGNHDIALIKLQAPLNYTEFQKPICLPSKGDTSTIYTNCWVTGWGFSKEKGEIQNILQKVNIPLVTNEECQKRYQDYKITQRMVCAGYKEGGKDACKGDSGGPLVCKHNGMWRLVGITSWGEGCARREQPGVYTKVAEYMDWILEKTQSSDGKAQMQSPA

In the case of `CC(C)[C@H](NC(=O)[C@H](CO)NC(=O)[C@H](CCCNC(=N)N)NC(=O)[C@H](Cc1ccccc1)NC(=O)CC1CCCCC1)C(=O)N[C@@H](CCC(N)=O)C(N)=O` [KKI-7, Cha-Phe-Arg-Ser-Val-Gln-NH2], the “second phase of the response to RSK, of the control value, individual values” in [1] (RSK reinjected 10-30 minutes after the infusion was started) is 6% and 26%. In [1] (setting [11]), the “CHANGE IN BLOOD FLOW (% OF CONTROL), RSK injected, AFTER INFUSION 30-60 min” value was determined as 35%; the “CHANGE IN BLOOD FLOW (% OF CONTROL), RSK injected, AFTER INFUSION <10 min” value came out at 11%; the “CHANGE IN BLOOD FLOW (% OF CONTROL), RSK injected, DURING INFUSION 10-30 min” value stood at 16%; the “CHANGE IN BLOOD FLOW (% OF CONTROL), RSK injected, DURING INFUSION <10 min” value turned out to be 52%. In series [1] (within the first ten minutes after infusion was begun), the “response to RSK injections, of the control response, range” value is on record as 49-56%. Moreover, the Ki in [2] was 12.3 µM. Besides, the “rate of cleavage by HUK relative to hexapeptides containing proline in the P3 position” value in series [3] is “approximately 15%”. Moreover, the side-effects of infusing entry in [4] (during the experimental period) is “No specific side-effects”. Further, in series [4] (infusion in the DMSO vehicle), the “change in blood flow caused by the infusion itself” value is listed as “moderate, transient increase in blood flow”. Also, the “effect on mean arterial blood pressure” value in series [5] (bolus injection or infusion 200 ug/kg/min for 15 minutes) is on record as “induces substantial increases”. The “ED50 dose, increase in blood pressure” value in series [5] (bolus injections, conscious, salt-replete, normotensive rats) was 0.75 mg/kg. The Ki in series [6] amounted to 244 µM. In addition, the Ki in series [7] (setting [12]) turned out to be 4 µM. In addition, the Ki in series [7] (setting [13]) turned out to be 4 µM. Also, the “effect on the response to bradykinin” value in [8] (bradykinin injected during the inhibitor infusion) is “no affect”. The “CHANGE IN BLOOD FLOW (% OF CONTROL), BK injected, DURING INFUSION <10 min” value in series [8] (iv infusion 206 nmole/0.022 ml/min in DMSO, 1-2 ng bradykinin) worked out at 95%. Further, the “response to the injection of PPK” value in series [9] (2 units of PPK, during and after infusion) is on record as “reduced”. For the same compound, in [9] (setting [14]), the “CHANGE IN BLOOD FLOW (% OF CONTROL), PPK injected, AFTER INFUSION 30-60 min” value was 52%; the “CHANGE IN BLOOD FLOW (% OF CONTROL), PPK injected, DURING INFUSION 10-30 min” value is given as 31%; the “CHANGE IN BLOOD FLOW (% OF CONTROL), PPK injected, DURING INFUSION <10 min” value is 38%.

Turning to “Ada-Phe-Arg-Ser-Val-Gln-NH2 (Ada-FRSVQ-NH2; reading uncertain; also: printed as Ada-Phe-Arg-Ser-Val-Gln-NH2) [KKI-8]”, the “effect on decrease in blood pressure elicited with RUK” value in series [10] was “inhibited”. The Ki came out at 71.8 µM in [2], 358 µM in [6], 4.2 µM in series [7] (setting [12]) and 4.2 µM in series [7] (setting [13]). Also, the “rate of cleavage by HUK relative to hexapeptides containing proline in the P3 position” value in [3] is reported as “approximately 15%”.
